Measurements: ChEMBL document CHEMBL1201861, “Genomics of Drug Sensitity in Cancer screening data, Wellcome Trust Sanger Institute”
pIC50: −log10 of the molar value.

Assays:
KYSE-510 = assay: cells; format: functional, cell-based; settings: Homo sapiens;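 also: cell viability readout used to measure how strongly growth of the cell line is suppressed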
Description: SANGER: Inhibition of human KYSE-510 cell growth in a cell viability assay.

BXPC-3 = assay: cells; format: functional, cell-based; settings: Homo sapiens;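 also: growth inhibition of human BxPC-3 cells, read out by a cell viability assay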
Description: SANGER: Inhibition of human BxPC-3 cell growth in a cell viability assay.

OVCAR-3 = assay: cells; format: functional, cell-based; settings: Homo sapiens;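 also: growth inhibition of human OVCAR-3 cells, determined by a cell viability assay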
Description: SANGER: Inhibition of human OVCAR-3 cell growth in a cell viability assay.

A204 = assay: cells; format: functional, cell-based; settings: Homo sapiens;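 also: growth inhibition of human A204 cells, read out with a cell viability assay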
Description: SANGER: Inhibition of human A204 cell growth in a cell viability assay.

SCC-25 = assay: cells; format: functional, cell-based; settings: Homo sapiens;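 also: growth inhibition of SCC-25 cells, measured with a cell viability assay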
Description: SANGER: Inhibition of human SCC-25 cell growth in a cell viability assay.

LK-2 = assay: cells; format: functional, cell-based; settings: Homo sapiens;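 also: growth inhibition of LK-2 cells, read out with a viability assay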
Description: SANGER: Inhibition of human LK-2 cell growth in a cell viability assay.

COLO-741 = assay: cells; format: functional, cell-based; settings: Homo sapiens
Description: SANGER: Inhibition of human COLO-741 cell growth in a cell viability assay.

SK-HEP1 = assay: cells; format: functional, cell-based, SK-HEP-1; settings: Homo sapiens;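 also: cell viability readout used to quantify reduction in proliferation of human SK-HEP-1 cells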
Description: SANGER: Inhibition of human SK-HEP-1 cell growth in a cell viability assay.

T98G = assay: cells; format: functional, cell-based; settings: Homo sapiens;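 also: growth inhibition of T98G cells, read out by a cell viability assay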
Description: SANGER: Inhibition of human T98G cell growth in a cell viability assay.

MDA-MB-415 = assay: cells; format: functional, cell-based; settings: Homo sapiens
ABC-1 = assay: cells; format: functional, cell-based; settings: Homo sapiens;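 also: growth inhibition of human ABC-1 cells, read out by a cell viability assay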
Description: SANGER: Inhibition of human ABC-1 cell growth in a cell viability assay.

NCI-H1792 = assay: cells; format: functional, cell-based; settings: Homo sapiens;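 also: growth inhibition of human NCI-H1792 cells, read out as cell viability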
Description: SANGER: Inhibition of human NCI-H1792 cell growth in a cell viability assay.

FaDu = assay: cells; format: functional, cell-based; settings: Homo sapiens;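 also: cell viability readout of growth inhibition in FaDu cells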
Description: SANGER: Inhibition of human FADU cell growth in a cell viability assay.

NCI-H2347 = assay: cells; format: functional, cell-based; settings: Homo sapiens;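 also: growth inhibition of the cell line, read out with a cell viability assay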
Description: SANGER: Inhibition of human NCI-H2347 cell growth in a cell viability assay.

CAKI-1 = assay: cells; format: functional, cell-based; settings: Homo sapiens;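 also: growth inhibition of CAKI-1 cells, measured by a cell viability assay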
Description: SANGER: Inhibition of human CAKI-1 cell growth in a cell viability assay.

NB7 = assay: cells; format: functional, cell-based, Homo sapiens; settings: Homo sapiens, NB7;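 also: growth inhibition of NB7 cells, read out with a cell viability assay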
Description: SANGER: Inhibition of human NB7 cell growth in a cell viability assay.

Calu-3 = assay: cells; format: functional, cell-based; settings: Homo sapiens;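 also: growth inhibition of human Calu-3 cells, determined with a cell viability assay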
Description: SANGER: Inhibition of human Calu-3 cell growth in a cell viability assay.

KYSE-180 = assay: cells; format: functional, cell-based; settings: Homo sapiens;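 also: growth inhibition of KYSE-180 cells, read out with a cell viability assay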
Description: SANGER: Inhibition of human KYSE-180 cell growth in a cell viability assay.

HuP-T3 = assay: cells; format: functional, cell-based; settings: Homo sapiens;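 also: HuP-T3 cell growth inhibition, read out with a cell viability assay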
Description: SANGER: Inhibition of human HuP-T3 cell growth in a cell viability assay.

COLO-792 = assay: cells; format: functional, cell-based; settings: Homo sapiens
Description: SANGER: Inhibition of human COLO-792 cell growth in a cell viability assay.

COLO-679 = assay: cells; format: functional, cell-based; settings: Homo sapiens
Description: SANGER: Inhibition of human COLO-679 cell growth in a cell viability assay.

YAPC = assay: cells; format: functional, cell-based; settings: Homo sapiens;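 also: growth inhibition of YAPC cells, measured with a cell viability assay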
Description: SANGER: Inhibition of human YAPC cell growth in a cell viability assay.

HuO-3N1 = assay: cells; format: functional, cell-based; settings: Homo sapiens;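 also: cell viability readout used to measure how strongly compounds suppress proliferation of human HuO-3N1 cells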
Description: SANGER: Inhibition of human HuO-3N1 cell growth in a cell viability assay.

GMS-10 = assay: cells; format: functional, cell-based; settings: Homo sapiens;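 also: growth inhibition of GMS-10 cells, read out as cell viability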
Description: SANGER: Inhibition of human GMS-10 cell growth in a cell viability assay.

CAL-51 = assay: cells; format: functional, cell-based; settings: Homo sapiens;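 also: human CAL-51 cell line, growth inhibition read out via a cell viability assay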
Description: SANGER: Inhibition of human CAL-51 cell growth in a cell viability assay.

LoVo = assay: cells; format: functional, cell-based; settings: Homo sapiens;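 also: growth inhibition of human LoVo cells, read out with a cell viability assay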
Description: SANGER: Inhibition of human LoVo cell growth in a cell viability assay.

SAOS-2 = assay: cells; format: functional, cell-based; settings: Homo sapiens;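 also: growth inhibition of human Saos-2 cells determined by a cell viability assay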
Description: SANGER: Inhibition of human Saos-2 cell growth in a cell viability assay.

HOP-92 = assay: cells; format: functional, cell-based; settings: Homo sapiens;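 also: cell viability readout, with IC50 reflecting inhibition of HOP-92 cell growth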
Description: SANGER: Inhibition of human HOP-92 cell growth in a cell viability assay.

HCC70 = assay: cells; format: functional, cell-based; settings: Homo sapiens;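 also: cell viability assay measuring how strongly the compound suppresses proliferation of HCC70 cells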
Description: SANGER: Inhibition of human HCC70 cell growth in a cell viability assay.

Ca-Ski = assay: cells; format: functional, cell-based; settings: Homo sapiens;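 also: cell viability assay measuring inhibition of Ca-Ski cell growth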
Description: SANGER: Inhibition of human Ca-Ski cell growth in a cell viability assay.

NCI-H2405 = assay: cells; format: functional, cell-based; settings: Homo sapiens;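 also: growth inhibition of the human cell line, read out with a cell viability assay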
Description: SANGER: Inhibition of human NCI-H2405 cell growth in a cell viability assay.

HT-29 = assay: cells; format: functional, cell-based; settings: Homo sapiens;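 also: growth inhibition of human HT-29 cells, read out by a cell viability assay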
Description: SANGER: Inhibition of human HT-29 cell growth in a cell viability assay.

EFM-19 = assay: cells; format: functional, cell-based; settings: Homo sapiens;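 also: growth inhibition of human EFM-19 cells, measured in a cell viability assay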
Description: SANGER: Inhibition of human EFM-19 cell growth in a cell viability assay.

NCI-H441 = assay: cells; format: functional, cell-based; settings: Homo sapiens;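 also: growth inhibition of NCI-H441 cells, read out with a cell viability assay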
Description: SANGER: Inhibition of human NCI-H441 cell growth in a cell viability assay.

M14 = assay: cells; format: functional, cell-based; settings: Homo sapiens;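 also: growth inhibition of M14 cells, read out with a cell viability assay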
Description: SANGER: Inhibition of human M14 cell growth in a cell viability assay.

HCC1954 = assay: cells; format: functional, cell-based; settings: Homo sapiens;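 also: growth inhibition of human HCC1954 cells, read out with a cell viability assay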
Description: SANGER: Inhibition of human HCC1954 cell growth in a cell viability assay.

RPMI 8402 = assay: SANGER: Inhibition of human RPMI-8402 cell growth in a cell viability assay.; format: functional, cell-based; settings: Homo sapiens, RPMI 8402
J82 = assay: cells; format: functional, cell-based; settings: Homo sapiens;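 also: growth inhibition of J82 cells, read out with a cell viability assay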
Description: SANGER: Inhibition of human J82 cell growth in a cell viability assay.

ACHN = assay: cells; format: functional, cell-based; settings: Homo sapiens;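 also: cell viability read-out used to gauge how strongly growth of human ACHN cells is suppressed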
Description: SANGER: Inhibition of human ACHN cell growth in a cell viability assay.

DG-75 = assay: cells; format: functional, cell-based, Homo sapiens; settings: Homo sapiens, DG-75;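 also: growth inhibition of DG-75 cells, read out with a cell viability assay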
Description: SANGER: Inhibition of human DG-75 cell growth in a cell viability assay.

TALL-1 = assay: cells; format: functional, cell-based, Homo sapiens; settings: Homo sapiens, TALL-1;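 also: growth inhibition of cultured human TALL-1 cells, read out by a cell viability assay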
Description: SANGER: Inhibition of human TALL-1 cell growth in a cell viability assay.

SCC-3 = assay: cells; format: functional, cell-based, Homo sapiens; settings: Homo sapiens, SCC-3;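 also: cell viability assay measuring inhibition of SCC-3 cell growth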
Description: SANGER: Inhibition of human SCC-3 cell growth in a cell viability assay.

LB647-SCLC = assay: cells; format: functional, cell-based, Homo sapiens; settings: Homo sapiens, LB647-SCLC;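 also: cell growth inhibition, read out by a viability assay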
Description: SANGER: Inhibition of human LB647-SCLC cell growth in a cell viability assay.

MONO-MAC-6 = assay: cells; format: functional, cell-based, Homo sapiens; settings: Homo sapiens, MONO-MAC-6;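 also: cell viability assay measuring growth inhibition of human MONO-MAC-6 cells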
Description: SANGER: Inhibition of human MONO-MAC-6 cell growth in a cell viability assay.

RL = assay: cells; format: functional, cell-based, Homo sapiens; settings: Homo sapiens, RL
Description: SANGER: Inhibition of human RL cell growth in a cell viability assay.

SR = assay: cells; format: functional, cell-based, Homo sapiens; settings: Homo sapiens, SR
Description: SANGER: Inhibition of human SR cell growth in a cell viability assay.

SIMA = assay: cells; format: functional, cell-based, Homo sapiens; settings: Homo sapiens, SIMA;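 also: growth inhibition of SIMA cells, measured with a cell viability readout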
Description: SANGER: Inhibition of human SIMA cell growth in a cell viability assay.

MDA-MB-134-VI = assay: cells; format: functional, cell-based, Homo sapiens; settings: Homo sapiens, MDA-MB-134-VI
Description: SANGER: Inhibition of human MDA-MB-134-VI cell growth in a cell viability assay.

CP66-MEL = assay: cells; format: functional, cell-based; settings: Homo sapiens;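 also: growth inhibition of CP66-MEL cells determined in a cell viability assay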
Description: SANGER: Inhibition of human CP66-MEL cell growth in a cell viability assay.

KMS-12-PE = assay: cells; format: functional, cell-based, Homo sapiens; settings: Homo sapiens, KMS-12-PE;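 also: growth inhibition of human KMS-12-PE cells, measured with a cell viability assay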
Description: SANGER: Inhibition of human KMS-12-PE cell growth in a cell viability assay.

CMK = assay: cells; format: functional, cell-based, Homo sapiens; settings: Homo sapiens, CMK;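 also: growth inhibition of CMK cells, read out as cell viability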
Description: SANGER: Inhibition of human CMK cell growth in a cell viability assay.

NCI-H1963 = assay: cells; format: functional, cell-based, Homo sapiens; settings: Homo sapiens, NCI-H1963;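 also: cell growth inhibition of the human line, determined with a cell viability assay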
Description: SANGER: Inhibition of human NCI-H1963 cell growth in a cell viability assay.

A 172 = assay: cells; format: functional, cell-based; settings: Homo sapiens;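 also: growth inhibition of A172 cells, measured with a cell viability readout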
Description: SANGER: Inhibition of human A172 cell growth in a cell viability assay.

KP-4 = assay: cells; format: functional, cell-based; settings: Homo sapiens;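 also: human KP-4 cells, with growth inhibition read out through a cell viability assay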
Description: SANGER: Inhibition of human KP-4 cell growth in a cell viability assay.

UMUC3 = assay: cells; format: functional, cell-based; settings: Homo sapiens;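 also: growth inhibition of human UM-UC-3 cells, read out with a cell viability assay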
Description: SANGER: Inhibition of human UM-UC-3 cell growth in a cell viability assay.

NCI-H2030 = assay: cells; format: functional, cell-based; settings: Homo sapiens;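 also: growth inhibition of human NCI-H2030 cells, read out by a cell viability assay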
Description: SANGER: Inhibition of human NCI-H2030 cell growth in a cell viability assay.

A2058 = assay: cells; format: functional, cell-based; settings: Homo sapiens;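 also: reduction of A2058 cell growth, read out with a viability assay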
Description: SANGER: Inhibition of human A2058 cell growth in a cell viability assay.

`NC1(c2ccc(-c3nc4ccn5c(=O)[nH]nc5c4cc3-c3ccccc3)cc2)CCC1` [MK-2206] showed a pIC50 (KYSE-510) of under 5.40, a pIC50 (BXPC-3) of under 5.40 and a pIC50 (OVCAR-3) of 5.47. The pIC50 (A204) was 5.55, the pIC50 (SCC-25) was under 5.40 and the pIC50 (LK-2) was under 5.40. For the same compound, the pIC50 (COLO-741) was under 5.40, the pIC50 (SK-HEP1) was under 5.40 and the pIC50 (T98G) was under 5.40. For the same compound, the pIC50 (MDA-MB-415) was 6.20, the pIC50 (ABC-1) was 5.63 and the pIC50 (NCI-H1792) was under 5.40. For the same compound, the pIC50 (FaDu) was under 5.40, the pIC50 (NCI-H2347) was under 5.40 and the pIC50 (CAKI-1) was under 5.40. The pIC50 (NB7) was 6.08, the pIC50 (Calu-3) was under 5.40 and the pIC50 (KYSE-180) was under 5.40. The pIC50 (HuP-T3) was under 5.40, the pIC50 (COLO-792) was under 5.40 and the pIC50 (COLO-679) was under 5.40. For the same compound, the pIC50 (YAPC) was under 5.40, the pIC50 (HuO-3N1) was under 5.40 and the pIC50 (GMS-10) was under 5.40. For the same compound, the pIC50 (CAL-51) was under 5.40, the pIC50 (LoVo) was 5.88 and the pIC50 (SAOS-2) was under 5.40. The pIC50 (HOP-92) was 6.06, the pIC50 (HCC70) was 6.22 and the pIC50 (Ca-Ski) was under 5.40. For the same compound, the pIC50 (NCI-H2405) was under 5.40, the pIC50 (HT-29) was under 5.40 and the pIC50 (EFM-19) was 6.36. It also gave a pIC50 (NCI-H441) of under 5.40, a pIC50 (M14) of under 5.40 and a pIC50 (HCC1954) of under 5.40.

`CO[C@@H]1[C@H](N(C)C(=O)c2ccccc2)C[C@H]2O[C@]1(C)n1c3ccccc3c3c4c(c5c6ccccc6n2c5c31)C(=O)NC4` [MIDOSTAURIN] gave a pIC50 (RPMI 8402) of under 6.29, a pIC50 (NCI-H1792) of 6.48 and a pIC50 (FaDu) of under 6.29. For the same compound, the pIC50 (J82) was under 6.29, the pIC50 (HuP-T3) was under 6.29 and the pIC50 (ACHN) was 6.48. The pIC50 (HOP-92) was under 6.29, the pIC50 (NCI-H2405) was 6.45 and the pIC50 (EFM-19) was 6.67.

`CC(C)C[C@H](NC(=O)[C@H](Cc1ccccc1)NC(=O)c1cnccn1)B(O)O` [BORTEZOMIB] was tested, and the pIC50 (RPMI 8402) was 8.46, the pIC50 (DG-75) was 7.73 and the pIC50 (TALL-1) was under 7.70. For the same compound, the pIC50 (SCC-3) was 8.63, the pIC50 (LB647-SCLC) was 8.37 and the pIC50 (MONO-MAC-6) was 8.51. It also gave a pIC50 (RL) of under 7.70, a pIC50 (SR) of 8.90 and a pIC50 (NB7) of 7.80. It also gave a pIC50 (SIMA) of under 7.70, a pIC50 (MDA-MB-134-VI) of under 7.70 and a pIC50 (CP66-MEL) of 9.32. For the same compound, the pIC50 (KMS-12-PE) was under 7.70, the pIC50 (CMK) was 8.89 and the pIC50 (NCI-H1963) was under 7.70.

`O=C(NCCCNc1nc(Nc2cccc(NC(=O)N3CCCC3)c2)ncc1I)c1cccs1` [BX-795] showed a pIC50 (KYSE-510) of 5.30, a pIC50 (BXPC-3) of under 5.30 and a pIC50 (OVCAR-3) of under 5.30. It also gave a pIC50 (A204) of 5.94, a pIC50 (SCC-25) of under 5.30 and a pIC50 (LK-2) of under 5.30. The pIC50 (COLO-741) was under 5.30, the pIC50 (SK-HEP1) was 5.53 and the pIC50 (T98G) was 5.62. For the same compound, the pIC50 (MDA-MB-415) was under 5.30, the pIC50 (ABC-1) was 5.32 and the pIC50 (NCI-H1792) was under 5.30. The pIC50 (FaDu) was under 5.30, the pIC50 (A 172) was 5.35 and the pIC50 (J82) was under 5.30. For the same compound, the pIC50 (NCI-H2347) was 5.31, the pIC50 (KP-4) was under 5.30 and the pIC50 (CAKI-1) was 5.64. The pIC50 (NB7) was under 5.30, the pIC50 (Calu-3) was under 5.30 and the pIC50 (KYSE-180) was under 5.30. The pIC50 (HuP-T3) was under 5.30, the pIC50 (UMUC3) was under 5.30 and the pIC50 (COLO-792) was under 5.30. For the same compound, the pIC50 (COLO-679) was under 5.30, the pIC50 (YAPC) was under 5.30 and the pIC50 (HuO-3N1) was 5.58. The pIC50 (GMS-10) was 5.38, the pIC50 (CAL-51) was 5.91 and the pIC50 (NCI-H2030) was under 5.30. For the same compound, the pIC50 (LoVo) was under 5.30, the pIC50 (A2058) was 5.53 and the pIC50 (SAOS-2) was 5.39. It also gave a pIC50 (ACHN) of under 5.30, a pIC50 (HOP-92) of 5.90 and a pIC50 (HCC70) of under 5.30. For the same compound, the pIC50 (Ca-Ski) was under 5.30, the pIC50 (NCI-H2405) was 5.33 and the pIC50 (HT-29) was under 5.30. The pIC50 (EFM-19) was under 5.30, the pIC50 (NCI-H441) was under 5.30 and the pIC50 (M14) was under 5.30. The pIC50 (HCC1954) was under 5.30.
